Where two headings read alike, the source gives them in different places.
Legend:
[1] = test system: VSV-Gpp
[2] = test system: HIV-1 92RW016; assay: Anti-HIV efficacy in fresh human PBMC (reverse transcriptase activity); type: cell-based; details: Human immunodeficiency virus 1, PBMC, 168 h; 92RW016 (clade A, R5); PBMCs, MOI = 0.1, 7 days
[3] = test system: HIV-1 (X4 NL4.3); assay: HIV-1 sedimentation assay; details: 10 μM PD, 30 min, 37° C.
[4] = test system: Jc1 HCVcc; assay: microbe, parasite or virus in culture; type: cell-based, HCV; details: Hepatitis C virus, Huh7.5, read-out: IC50, inactivation of cell-free HCVcc
[5] = test system: HIV-1 93BR021; assay: Anti-HIV efficacy in fresh human PBMC (reverse transcriptase activity); type: cell-based; details: Human immunodeficiency virus 1, PBMC, 168 h; 93BR021 (clade B, R5); PBMCs, MOI = 0.1, 7 days
[6] = test system: HIV-1 RU132; assay: as above; type: cell-based; details: Human immunodeficiency virus 1, PBMC, 168 h; RU132 (clade G, R5); PBMCs, MOI = 0.1, 7 days
[7] = test system: HIV-1 96USNG31; assay: as above; type: cell-based; details: Human immunodeficiency virus 1, PBMC, 168 h; 96USNG31 (clade C, X4/R5); PBMCs, MOI = 0.1, 7 days
[8] = test system: HIV-1 92TH599; assay: HIV infectivity assay in TZM-bl cells; type: cell-based; details: 92TH599 (clade B, X4); for IC50: Human immunodeficiency virus 1, TZM-bl
[9] = test system: primary isolates of HIV and SIV; assay: organism not typed; type: cell-based, HIV-1, HIV-2
[10] = test system: HIV-20DC310342; assay: HIV-2 infectivity assay in TZM-bl cells; type: cell-based; details: Human immunodeficiency virus 2, TZM-bl
[11] = test system: Lactobacillus jensenii ATCC 25258; assay: Lactobacillus toxicity testing (CFU); type: cell-based
Protocol: (§1) Reference strains of L. crispatus and L. jensenii were obtained from the ATCC (Manassas, Va.) and cultured on Columbia blood agar plates at 35° C. in air enriched with 6% CO2. Bacterial suspensions were prepared in saline or ACES buffer to a density of 2 McFarland units (˜2×10^8 bacteria/mL), and exposed to PD (300 μM) or DMSO (10%) for 30 minutes at 37° C. After incubation, the cells were serially diluted in ACES buffer, pH 7.0 (Sigma-Aldrich, St. Louis, Mo.) and plated on blood agar plates to quantify colony forming unit per mL (CFU/mL)
(§2) Different bacterial strains were incubated with 300 μM PD or solvent DMSO-containing control media at 37° C. for 30 min and plated on blood agar plates to estimate their corresponding colony forming units per ml (CFU/ml). Less than 1 log difference between control and test CFU is considered non-toxic 17.

[12] = test system: Lactobacillus jensenii LBP 28Ab; assay: Lactobacillus toxicity testing (CFU); type: cell-based
Protocol: as §1, §2

[13] = test system: Lactobacillus crispatus ATCC 33197; assay: Lactobacillus toxicity testing (CFU); type: cell-based
Protocol: as §1, §2

[14] = test system: SIVsyk1.2; assay: SIV infectivity assay in TZM-bl cells; type: cell-based; details: Simian immunodeficiency virus, first value cell of the line (cells shifted; presumably DMEM)
[15] = test system: HIV-1 92UG029; assay: HIV infectivity assay in TZM-bl cells; type: cell-based; details: 92UG029 (clade A, X4); for IC50: Human immunodeficiency virus 1, TZM-bl
[16] = test system: HIV-1 92UG001; assay: Anti-HIV efficacy in fresh human PBMC (reverse transcriptase activity); type: cell-based; details: Human immunodeficiency virus 1, PBMC, 168 h; 92UG001 (clade D, X4/R5); PBMCs, MOI = 0.1, 7 days
[17] = test system: HIV-1 92TH026; assay: HIV infectivity assay in TZM-bl cells; type: cell-based; details: 92TH026 (clade B, R5); for IC50: Human immunodeficiency virus 1, TZM-bl
[18] = test system: HIV-1 Jv1083; assay: HIV infectivity assay in TZM-bl cells; type: cell-based; details: Jv1083 (clade G, R5); for IC50: Human immunodeficiency virus 1, TZM-bl
[19] = test system: VSV-Gpp; remark: listed apart in the source
[20] = test system: HIV-1 92HT599; assay: Anti-HIV efficacy in fresh human PBMC (reverse transcriptase activity); type: cell-based; details: Human immunodeficiency virus 1, PBMC, 168 h; 92HT599 (clade B, X4); PBMCs, MOI = 0.1, 7 days
[21] = test system: HIV-1 92UG024; assay: HIV infectivity assay in TZM-bl cells; type: cell-based; details: 92UG024 (clade D, X4); for IC50: Human immunodeficiency virus 1, TZM-bl
[22] = 300 μM PD, less than 1 log difference is considered non-toxic

N=C1Sc2ccccc2C2=NCCCN12 [PD, PD 404,182]
activity loss in cervical fluid [1]: no activity loss | IC50 [2]: 0.22 µM | IC90 [2]: 0.54 µM | sedimentation of HIV capsid and RT in sucrose gradient [3]: viral capsid and RT relocate to the top of the gradient | IC50 [4]: 11 µM | IC50 [5]: 0.6 µM | IC90 [5]: 4.26 µM | IC50 [6]: 0.2 µM | IC90 [6]: 0.53 µM | IC50 [7]: 0.14 µM | IC90 [7]: 1.62 µM | IC50 (DMEM; IC90 per footnote) ([8]; PD in DMEM + 10% FBS): 5.9 ± 0.3 µM | IC50 (Cervical Fluid; IC90 per footnote) ([8]; PD in cervical fluids): 6.4 ± 0.5 µM | IC50 (Seminal Plasma; IC90 per footnote) ([8]; PD in seminal plasma): 6.31 ± 0.52 µM | IC50 ([8]; PD in DMEM + 10% FBS): 1.8 µM | IC50 ([8]; PD in cervical fluids): 2.2 µM | IC50 ([8]; PD in seminal plasma): 1.93 µM | effect of seminal plasma on PD's anti-HIV activity [9]: does not negatively impact PD's anti-HIV activity | IC50 ([9]; Human immunodeficiency virus 1, TZM-bl, read-out: IC50 range over tested subtypes of HIV-1): 0.42 to 1.96 µM | IC90 ([9]; Human immunodeficiency virus 1, TZM-bl, read-out: IC90 range over tested subtypes of HIV-1): 1.58 to 7.19 µM | IC50 ([9]; TZM-bl): ~1 µM | IC50 ([9]; TZM-bl, read-out: IC50 range): 0.33 to 1.8 µM | IC90 ([9]; TZM-bl, read-out: IC90 range): 1.4 to 6.6 µM | IC50 ([9]; read-out: IC50 range): 0.61 to 2.3 µM | IC90 ([9]; read-out: IC90 range): 1.8 to 7.5 µM | IC50 [10]: 1.8 µM | Log(Control) − Log(PD) [11, 22]: −0.122 | CFU of Lactobacillus treated with 300 μM PD ([11]; 30 min, 37° C.): 7,533,333 CFU | Log(Control) − Log(PD) [12, 22]: −0.021 | CFU of Lactobacillus treated with 300 μM PD ([12]; 30 min, 37° C.): 10,033,333 CFU | Log(Control) − Log(PD) [13, 22]: −0.019 | CFU of Lactobacillus treated with 300 μM PD ([13]; 30 min, 37° C.): 7,260,000 CFU | IC50 [14]: 1.9 µM | IC90 ([15]; PD in DMEM + 10% FBS): 4.4 ± 0.2 µM | IC90 ([15]; PD in cervical fluids): 5.3 ± 0.3 µM | IC90 ([15]; PD in seminal plasma): 4.71 ± 0.26 µM | IC50 ([15]; PD in DMEM + 10% FBS): 1.18 µM | IC50 ([15]; PD in cervical fluids): 1.47 µM | IC50 ([15]; PD in seminal plasma): 1.33 µM | IC50 [16]: 1.11 µM | IC90 [16]: 1.89 µM | IC90 ([17]; PD in DMEM + 10% FBS): 2.8 ± 0.2 µM | IC90 ([17]; PD in cervical fluids): 3.3 ± 0.1 µM | IC90 ([17]; PD in seminal plasma): 2.95 ± 0.16 µM | IC50 ([17]; PD in DMEM + 10% FBS): 0.35 µM | IC50 ([17]; PD in cervical fluids): 0.61 µM | IC50 ([17]; PD in seminal plasma): 0.43 µM | IC50 ([18]; PD in DMEM + 10% FBS): 1.1 µM | IC50 ([18]; PD in cervical fluids): 1.5 µM | IC50 ([18]; PD in seminal plasma): 1.27 µM | IC90 ([18]; PD in DMEM + 10% FBS): 3.9 ± 0.3 µM | IC90 ([18]; PD in cervical fluids): 4.7 ± 0.1 µM | IC90 ([18]; PD in seminal plasma): 4.22 ± 0.39 µM | stability in acidic buffer ([19]; pH 4): highly stable | activity loss ([19]; pH 8): no activity loss | antiviral activity lost ([19]; pH 8): ~20% | activity loss ([19]; pH 10): ~20% | antiviral activity lost ([19]; pH 10): ~50% | IC50 [20]: 0.55 µM | IC90 [20]: 1.92 µM | IC50 (DMEM; IC90 per footnote) ([21]; PD in DMEM + 10% FBS): 1.4 ± 0.2 µM | IC50 (Cervical Fluid; IC90 per footnote) ([21]; PD in cervical fluids): 1.8 ± 0.2 µM | IC50 (Seminal Plasma; IC90 per footnote) ([21]; PD in seminal plasma): 1.58 ± 0.2 µM | IC50 ([21]; PD in DMEM + 10% FBS): 3.33 µM | IC50 ([21]; PD in cervical fluids): 0.55 µM | IC50 ([21]; PD in seminal plasma): 0.42 µM

— US20140227335A1 (priority 2012, published 2014)
